According to US12662473B2, “Inhibitors for programmed cell necrosis and preparation method therefor and use thereof” (SHANGHAI INSTITUTE OF ORGANIC CHEMISTRY, CHINESE ACADEMY OF …, priority 2019, dated 2026):

Key:
[1] = tested on: RIPK1 (S161A); experiment: Effect of RIPK1 S161A mutation on compound activity (293T overexpression; S161A MEFs cell death with TNFα and 5z7); assay type: cell-based, murine; conditions: FIG. 5
From the text: The biological test protocol used in this experiment was to test the effect of mutation of serine at position 161 of RIPK1 to alanine on the activity of compound QY-1-98. The experiment was verified by two aspects. On the one hand, after RIPK1 was overexpressed in 293T cells, RIPK1 would be activated by autophosphorylation, and the activity of small molecules to inhibit the phosphorylation of RIPK1 was detected at this time. On the other hand, in murine-derived MEFs cells with RIPK1 knockout, and RIPK1 (S161A) put back, RIPK1-dependent cell apoptosis can be induced by using TNFα and 5z7 (TAK1 inhibitor), and the effect of the compound to inhibit cell death was detected at this time.
1. 293T cells overexpressing RIPK1 experiment: RIPK1 plasmid with N-terminal 3×FLAG was constructed on PcDNA vector. 293T cells were digested, and then diluted to 8×10^5/ml. 1 ml of cells were added to each well of a 12-well cell culture plate, and the plate was placed in a cell culture incubator (37° C., 5% CO2) for 12 hours before transfection. […] After cooling, the samples were detected by western-blot after electrophoresis on SDS-PAGE gel (9%). […] The plate was placed in cell incubator (37° C., 5% CO2) for 14 h, 15 μl of Cell Titer-Glo solution was added to each well, the mixture was incubated at room temperature for 30 min, and the luminescence value was detected to measure the level of intracellular ATP. […]

[2] = biological target: T1, RIPK1(1-330) protein (Homo sapiens, UniProt Q13546); experiment: Protein thermal shift assay; assay type: binding; set-up: RIPK1(1-330) protein (final concentration 2 μM) was expressed and purified in insect cells; made in house; host or cells: insect cells; conditions: FIG. 3
T1 sequence (Q13546 1-330): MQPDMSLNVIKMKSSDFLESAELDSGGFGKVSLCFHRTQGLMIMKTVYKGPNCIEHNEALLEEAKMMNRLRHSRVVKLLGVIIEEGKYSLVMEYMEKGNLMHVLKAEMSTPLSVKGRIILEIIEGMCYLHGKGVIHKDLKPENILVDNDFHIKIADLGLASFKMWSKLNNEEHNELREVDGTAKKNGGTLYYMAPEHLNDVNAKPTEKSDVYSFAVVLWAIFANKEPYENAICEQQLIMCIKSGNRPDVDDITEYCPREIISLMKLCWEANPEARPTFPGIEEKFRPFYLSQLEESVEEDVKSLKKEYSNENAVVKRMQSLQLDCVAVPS
Protocol: The interaction between RIPK1 protein and compound was analyzed by studying the thermal stability of the protein. Small molecule ligands can stabilize proteins by binding to proteins, increasing the Tm value of proteins. The interaction between the compound and the protein can be indirectly judged by testing the effect of the compound on the thermal stability of the protein. RIPK1 protein contains kinase domain (1-312), intermediate domain (312-582) and death domain (582-669), and RIPK1 (1-330) protein purified in vitro contains all kinase domains.
The adopted biological test protocol was to test the effect of compound QY-1-98 on the thermal stability of RIPK1 (1-330) protein using protein thermal shift assay, using the known RIPK1 inhibitor Nec-1s as a control.
RIPK1(1-330) protein (final concentration 2 μM) was expressed and purified in insect cells, mixed with the corresponding concentration of compound and SYRO Orange Protein gel stain dye (final concentration 5×). 10 μL of final volume was added to 384-well plate, and at least 3 duplicate wells were set in each group. After the samples were placed for 2 hours at room temperature, the 7500 Fast Real-Time PCR System was applied to test the thermal stability of the protein by […]. The temperature was set at 25° C.-95° C., 0.015° C./s. The datas were analyzed using protein thermal shift software.

Compound: Cc1noc([C@@H]2CCCN2C(=O)C(C)(C)Oc2ccc(Cl)cc2)n1 [QY-1-98]
- inhibition of programmed cell necrosis after mutation of serine 161 of RIPK1 to alanine [1]: can still inhibit the programmed cells necrosis
- thermal stability of RIPK1 (1-330) protein [2]: can significantly improve the thermal stability
